What follows are compounds tested against HEK293 cells with stable expression of the GRIN1 gene and tetracycline-inducible expression of the GRIN2B gene (NMDA receptor, NR2B) (Homo sapiens, UniProt Q13224) (assay: Fluo-8 Ca2+ flux assay: reversal of Ro 25-6981-mediated suppression of the Ca2+ response to co-agonist (glutamate/glycine)). Conditions: reversal of the Ro 25-6981 suppression of the Ca2+ response to co-agonist (glutamate/glycine).
Chain of HEK293 cells with stable expression of the GRIN1 gene and tetracycline-inducible expression of the GRIN2B gene (NMDA receptor, NR2B) (Q13224 27-1484, other chains not shown): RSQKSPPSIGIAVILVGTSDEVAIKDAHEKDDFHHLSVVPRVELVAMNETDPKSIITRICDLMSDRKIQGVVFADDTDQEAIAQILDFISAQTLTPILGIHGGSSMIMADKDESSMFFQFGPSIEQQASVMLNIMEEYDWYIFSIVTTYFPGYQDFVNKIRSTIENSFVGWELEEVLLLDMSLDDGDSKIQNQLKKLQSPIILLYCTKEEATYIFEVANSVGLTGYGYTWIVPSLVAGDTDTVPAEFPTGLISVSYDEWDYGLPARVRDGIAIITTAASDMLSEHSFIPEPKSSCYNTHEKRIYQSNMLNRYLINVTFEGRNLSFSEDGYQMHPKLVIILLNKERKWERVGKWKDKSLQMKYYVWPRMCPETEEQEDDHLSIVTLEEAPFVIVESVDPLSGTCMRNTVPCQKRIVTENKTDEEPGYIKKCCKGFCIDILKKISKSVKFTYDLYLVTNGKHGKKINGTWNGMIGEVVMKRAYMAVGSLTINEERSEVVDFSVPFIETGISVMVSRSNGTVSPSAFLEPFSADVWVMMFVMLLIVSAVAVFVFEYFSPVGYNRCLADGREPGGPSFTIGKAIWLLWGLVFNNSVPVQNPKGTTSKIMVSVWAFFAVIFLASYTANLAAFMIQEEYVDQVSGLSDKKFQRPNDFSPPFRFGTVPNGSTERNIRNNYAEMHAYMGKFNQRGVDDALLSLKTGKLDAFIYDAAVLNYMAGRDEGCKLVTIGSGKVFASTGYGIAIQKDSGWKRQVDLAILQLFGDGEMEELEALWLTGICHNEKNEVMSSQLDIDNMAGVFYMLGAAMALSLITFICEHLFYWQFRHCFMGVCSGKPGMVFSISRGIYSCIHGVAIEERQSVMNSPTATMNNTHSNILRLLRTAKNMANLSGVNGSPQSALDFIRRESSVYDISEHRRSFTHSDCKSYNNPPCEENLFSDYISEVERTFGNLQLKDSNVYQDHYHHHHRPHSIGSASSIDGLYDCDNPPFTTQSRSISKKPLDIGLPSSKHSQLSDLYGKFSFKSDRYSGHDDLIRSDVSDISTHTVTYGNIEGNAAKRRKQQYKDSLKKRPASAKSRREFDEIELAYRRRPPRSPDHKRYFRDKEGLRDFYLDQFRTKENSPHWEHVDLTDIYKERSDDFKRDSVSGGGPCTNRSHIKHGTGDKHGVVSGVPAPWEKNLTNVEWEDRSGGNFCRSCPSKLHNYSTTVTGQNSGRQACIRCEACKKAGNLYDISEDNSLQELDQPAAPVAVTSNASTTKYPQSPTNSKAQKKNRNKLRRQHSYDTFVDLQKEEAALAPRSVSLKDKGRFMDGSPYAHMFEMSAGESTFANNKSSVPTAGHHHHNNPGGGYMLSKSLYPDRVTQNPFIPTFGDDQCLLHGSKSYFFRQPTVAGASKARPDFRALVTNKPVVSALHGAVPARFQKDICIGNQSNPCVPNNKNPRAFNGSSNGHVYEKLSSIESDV
Format: cell-based
`N#Cc1cn(CC(=O)N2CCCC2)c(=O)c2c(-c3ccc(Cl)c(C(F)(F)F)c3)csc12` [Example 99, 3-(4-chloro-3-(trifluoromethyl)phenyl)-4-oxo-5-(2-oxo-2-(pyrrolidin-1-yl)ethyl)-4,5-dihydrothieno[3,2-c]pyridine-7-carbonitrile] was tested, and the “Response Recovered (%)” value was 37%.
With `N#Cc1cn(CC(=O)N2CCCC2)c(=O)c2c(-c3ccc(F)c(C(F)(F)F)c3)csc12` [Example 100, 3-(4-fluoro-3-(trifluoromethyl)phenyl)-4-oxo-5-(2-oxo-2-(pyrrolidin-1-yl)ethyl)-4,5-dihydrothieno[3,2-c]pyridine-7-carbonitrile] the “Response Recovered (%)” value was 34%.
`O=C(Cn1cc(C2CC2)c2scc(-c3ccc(Cl)c(C(F)(F)F)c3)c2c1=O)N1CCCC1` [Example 101, 3-(4-chloro-3-(trifluoromethyl)phenyl)-7-cyclopropyl-5-(2-oxo-2-(pyrrolidin-1-yl)ethyl)thieno[3,2-c]pyridin-4(5H)-one] was tested, and the “Response Recovered (%)” value was 29%.
`O=C(Cn1cc(-c2ccccc2)c2scc(-c3ccc(Cl)c(C(F)(F)F)c3)c2c1=O)N1CCCC1` [Example 102, 3-(4-chloro-3-(trifluoromethyl)phenyl)-5-(2-oxo-2-(pyrrolidin-1-yl)ethyl)-7-phenylthieno[3,2-c]pyridin-4(5H)-one] was tested, and the “Response Recovered (%)” value was 23%.
In the case of `O=C(Cn1cc(-c2ccncc2)c2scc(-c3ccc(Cl)c(C(F)(F)F)c3)c2c1=O)N1CCCC1` [Example 103, 3-(4-chloro-3-(trifluoromethyl)phenyl)-5-(2-oxo-2-(pyrrolidin-1-yl)ethyl)-7-(pyridin-4-yl)thieno[3,2-c]pyridin-4(5H)-one], the “Response Recovered (%)” value is reported as 32%.
In the case of `O=C(Cn1cc(-c2ccccc2)c2scc(-c3ccc(F)c(C(F)(F)F)c3)c2c1=O)N1CCCC1` [Example 104, 3-(4-fluoro-3-(trifluoromethyl)phenyl)-5-(2-oxo-2-(pyrrolidin-1-yl)ethyl)-7-phenylthieno[3,2-c]pyridin-4(5H)-one], the “Response Recovered (%)” value is reported as 22%.
In the case of `O=C(Cn1cc(-c2ccncc2)c2scc(-c3ccc(F)c(C(F)(F)F)c3)c2c1=O)N1CCCC1` [Example 105, 3-(4-fluoro-3-(trifluoromethyl)phenyl)-5-(2-oxo-2-(pyrrolidin-1-yl)ethyl)-7-(pyridin-4-yl)thieno[3,2-c]pyridin-4(5H)-one], the “Response Recovered (%)” value is reported as 22%.
For `Cc1cn(CC(=O)N2CCCC2)c(=O)c2c(-c3ccc(Cl)c(C(F)(F)F)c3)csc12` [Example 106, 3-(4-chloro-3-(trifluoromethyl)phenyl)-7-methyl-5-(2-oxo-2-(pyrrolidin-1-yl)ethyl)thieno[3,2-c]pyridin-4(5H)-one], the “Response Recovered (%)” value was 76%.
For `Cc1cn(CC(=O)N2CCCC2)c(=O)c2c(-c3ccc(F)c(C(F)(F)F)c3)csc12` [Example 107, 3-[4-fluoro-3-(trifluoromethyl)phenyl]-7-methyl-5-[2-oxo-2-(pyrrolidin-1-yl)ethyl]-4H,5H-thieno[3,2-c]pyridin-4-one], the “Response Recovered (%)” value was 63%.
For `N=C(NO)c1cn(CC(=O)N2CCCC2)c(=O)c2c(-c3ccc(F)c(C(F)(F)F)c3)csc12` [Example 108, 3-(4-fluoro-3-(trifluoromethyl)phenyl)-N-hydroxy-4-oxo-5-(2-oxo-2-(pyrrolidin-1-yl)ethyl)-4,5-dihydrothieno[3,2-c]pyridine-7-carboximidamide], the “Response Recovered (%)” value was 64%.
In the case of `O=C(Cn1cc(-c2ncon2)c2scc(-c3ccc(F)c(C(F)(F)F)c3)c2c1=O)N1CCCC1` [Example 109, 3-(4-fluoro-3-(trifluoromethyl)phenyl)-7-(1,2,4-oxadiazol-3-yl)-5-(2-oxo-2-(pyrrolidin-1-yl)ethyl)thieno[3,2-c]pyridin-4(5H)-one], the “Response Recovered (%)” value is reported as 14%.
In the case of `N=C(NO)c1cn(CC(=O)N2CCC(F)C2)c(=O)c2c(-c3ccc(F)c(C(F)(F)F)c3)csc12` (stereo not drawn) [Example 110, 3-(4-fluoro-3-(trifluoromethyl)phenyl)-5-(2-(3-fluoropyrrolidin-1-yl)-2-oxoethyl)-N-hydroxy-4-oxo-4,5-dihydrothieno[3,2-c]pyridine-7-carboximidamide], the “Response Recovered (%)” value is reported as 33%.

Reference: patent US12162890B2 (Novartis AG, priority 2015, dated 2024)
Note: test concentration or dose not given here.
